Test results reported in patent US9101160B2, “Condiments with high-potency sweetener” (The Coca-Cola Company, priority 2005, dated 2015).

Type: physicochemical
Protocol: A solution of rebaudioside A ( >97% pure by HPLC ) was prepared in double distilled water (12.5 gm in 50 mL, 25% concentration) by stirring the mixture at 40° C. for 5 minutes. An amorphous form of rebaudioside A was formed by immediately using the clear solution for spray drying with the Lab-Plant spray drier SD-04 instrument (Lab-Plant Ltd., West Yorkshire, U.K.). The solution was fed through the feed pump into the nozzle atomizer which atomized it into a spray of droplets with the help of a constant flow of nitrogen/air. […] This dry powder (11-12 g, H2O 6.74%) was discharged continuously from the drying chamber and was collected in a bottle.

rebaudioside A [Form 4]
solubility in water at room temperature: > 35.0%
